Reference: US7163960B2, “Treatment and prevention of inflammatory disorders” (Monsanto Technology L.L.C., priority 2002, dated 2007)
“Also recorded” adds a separate entry of the source. Marks after values point to notes of the source that are not given here.

Tests used:
[1] = Fatty acid analysis of blood cell phospholipids and plasma lipid fractions after ingestion of test fatty acids; assay type: in vivo, human
Text: (§1) 45 males and post-menopausal female—19–65 years of age, normolipidemic, and with a body mass index (BMI) in the range 20 to 30, were recruited. Exclusion criteria included bleeding disorders, hypertension, inflammatory disorders, active gastrointestinal diseases, chronic use of low dose aspirin, consumption of restaurant or takeaway evening meals more than twice per week, use of dietary supplements rich in n-3 or n-6 fatty acids, habitual consumption of more than 1 fish meal per month, and plasma phospholipid EPA+DHA levels>7.9% of total fatty acids (level achieved in the study group was 4.9±1.0% of total fatty acids).
(§2) Following a 3-week run-in period, subjects ingested either ALA, SDA, EPA supplied as ethyl esters in capsules. Intakes were 0.75 g/day for 3 weeks followed by 1.5 g/day for the subsequent 3 weeks.
At each visit, 36 mL of blood was taken by venepuncture after an overnight fast. Blood was aliquoted into various tubes for the following procedures.
Blood (20 mL) was added to tubes containing 4 mL 4.5% EDTA in water and 4 mL—6% dextran in normal saline, pH 7.0. Erythrocytes were allowed to sediment under gravity at 37° C. for 30 min. The leucocyte-rich plasma was layered onto LYMPHOPREP, density 1.077 (Nycomed Pharma, Oslo) and centrifuged at 110 g for 10 min to separate leucocytes from the platelets, which were removed. The gradient was further centrifuged at 200 g for 20 min to separate the neutrophils from mononuclear cells, which were removed.
Samples were processed for fatty acid analysis as described in Mantzioris et al., Am. J. Clin. Nutr., 72:42–8 (2000). Plasma, washed platelet and mononuclear cell pellets were stored at −80° C. Erythrocyte pellets were treated fresh with chloroform:isopropanol (2:1) and the lipid extracts stored at 4° C. Plasma, platelet and mononuclear cell pellets were extracted with chloroform:methanol. The cellular and plasma lipid extracts were fractionated by thin-layer chromatography. For the cellular extracts, the phospholipid fraction was retained and for the plasma extracts, the phospholipid, cholesterol ester, and triglyceride fractions were retained. These were transesterified by methanolysis (1% H2SO4 in methanol at 70° C. for 3 h). Fatty acid methyl esters were separated and quantified with a HEWLETT-PACKARD 6890 gas chromatograph equipped with a 50 m capillary column coated with BPX-70 (0.25 μm film thickness; SGE Pty Ltd, Victoria, Australia) (see Mantzioris et al., supra). Fatty acid standards were obtained from NuChek Prep Inc. (Elysian, Minn.) and included stearidonic acid obtained from Sigma Aldrich Pty Ltd. (Castle Hill, NSW, Australia). All organic solvents contained butylated hydroxy anisole (0.005%) as an antioxidant.

[2] = test system: TNF-α; assay: TNF-α synthesis in LPS-treated whole blood; assay type: in vivo, human; settings: for TNF-α synthesis in LPS-treated whole blood: mean ± SD
Protocol: as §2
(§3) Blood (4 mL) was added to heparinised tubes, bacterial lipopolysaccharide (LPS) was added (200 ng/mL), and the mixture was incubated at 37° C., 5% CO2, for 24 h. Plasma was collected and assayed for prostaglandin E2 (PGE2) by radioimmunoassay (RIA), interleukin-1β (IL-1β) and tumor necrosis factor-α (TNF-α) by ELISA, as described in Mantzioris et al., supra.

[3] = test system: IL-1β; assay: IL-1β synthesis in LPS-treated whole blood; assay type: in vivo, human; settings: for IL-1β synthesis in LPS-treated whole blood: mean ± SD
Protocol: as §2, §3

[4] = test system: prostaglandin E2 (PGE2); assay: PGE2 synthesis in LPS-stimulated whole blood; assay type: in vivo, human; settings: for PGE2 synthesis in LPS-stimulated whole blood: mean ± SD
Protocol: as §2, §3

[5] = test system: C-reactive protein; assay: Clinical study of SDA on down-regulating C-reactive protein; assay type: in vivo, human; settings: Example 3, described in present tense; about 0.75 then 1.5 g/day
Text: as §1, with “Approximately 35–50” for “45”, “female -19–65” for “female—19–65”, “are” for “were”, “include” for “included”, “acids. Subjects are randomly allocated to one” for “acids (level achieved in the study group was 4.9±1.0%”, “three groups, designated ALA, SDA, and EPA. […]” for “total fatty acids).”
C-reactive protein (Hs-CRP) in plasma can be analyzed by use of latex-enhanced immunonephelometric assay on a BN II analyzer (Rifai et al. Clinical efficacy of an automated high-sensitivity C-reactive protein assay. Clin. Chem […];45:2136). […]
Subjects are weighed at each visit for change in weight during the trial. […] Fatty acids are analyzed between dietary groups in EPA concentration in erythrocyte or plasma phospholipids. The effect of ingestion of EPA, ALA or SDA at 0.75 g/day (weeks 0 to 3) or 1.5 g/day (weeks 3 to 6) is determined with respect to EPA concentration in the phospholipid fractions of erythrocytes and plasma. Effects on DPA concentration in the phospholipid fractions of erythrocytes and plasma are also analyzed.

[6] = test system: leukotrienes; settings: U.S. Pat. No. 5,158,975; cited from earlier work
[7] = Week 3 (after 0.75 g/day for 3 weeks)
[8] = Week 6 (after 1.5 g/day for 3 weeks)
[9] = Week −3 (start of run-in, before dosing)

CC/C=C\C/C=C\C/C=C\C/C=C\CCCCC(=O)O [SDA, stearidonic acid]
Effect on EPA concentration in the phospholipid fractions of erythrocytes and plasma ([1]; 0.75 g/day (weeks 0 to 3)): significantly increased | Effect on DPA concentration in the phospholipid fractions of erythrocytes and plasma ([1]; 1.5 g/day): significantly increased; also recorded: elevated | Effect on EPA concentration in the phospholipid fractions of erythrocytes and plasma ([1]; 1.5 g/day (weeks 3 to 6)): significantly increased; also recorded: elevated | Effect on tissue levels of DHA (FIG. 1) ([1]; erythrocytes and plasma phospholipids, 1.5 g/day): not DHA | Efficiency relative to ALA at elevating tissue EPA levels ([1]; in humans): about four times more efficient than ALA | Effect on LPS-stimulated TNF synthesis ([2]; 1.5 g/day): statistically significant decreases | TNF-α synthesis in LPS-treated whole blood ([2]; Week 0 (baseline)): 43.7 ± 18.7^a ng/mL | TNF-α synthesis in LPS-treated whole blood [2, 7]: 37.7 ± 14.2^ab ng/mL | TNF-α synthesis in LPS-treated whole blood [2, 8]: 34.1 ± 12.0^b ng/mL | TNF-α synthesis in LPS-treated whole blood [2, 9]: 37.6 ± 14.6^ab ng/mL | Effect on LPS-stimulated IL-1β synthesis ([3]; 0.75 g/day or 1.5 g/day (either dose)): significantly decreased | IL-1β synthesis in LPS-treated whole blood ([3]; Week 0 (baseline)): 94.7 ± 29.3^b ng/mL | IL-1β synthesis in LPS-treated whole blood [3, 7]: 81.4 ± 21.9^c ng/mL | IL-1β synthesis in LPS-treated whole blood [3, 8]: 77.8 ± 26.4^c ng/mL | IL-1β synthesis in LPS-treated whole blood [3, 9]: 106.9 ± 33.0^a ng/mL | Effect on LPS-stimulated PGE2 synthesis ([4]; 1.5 g/day): no change | Effect on LPS-stimulated PGE2 synthesis ([4]; Visit 3, following ingestion of 0.75 g): statistically significant increases | PGE2 synthesis in LPS-stimulated whole blood ([4]; Week 0 (baseline)): *4.64 ± 1.09^a ng/mL | PGE2 synthesis in LPS-stimulated whole blood [4, 7]: 6.26 ± 2.56^b ng/mL | PGE2 synthesis in LPS-stimulated whole blood [4, 8]: 4.61 ± 0.95^a ng/mL | PGE2 synthesis in LPS-stimulated whole blood [4, 9]: 3.97 ± 1.48^a ng/mL | Effect of SDA intake on C-reactive protein [5]: decrease in C-reactive protein | Effect on biosynthesis of leukotrienes [6]: inhibit biosynthesis of leukotrienes
